Laboratory results from US20120100990A1, “4 -AMINOPICOLINATES AND THEIR USE AS HERBICIDES” (SYNGENTA CROP PROTECTION LLC, priority 2009, published 2012).

Experiments:
Type in all cases: in vivo
[1] = tested on: Alopecurus myosuroides (ALOMY); assay: Pre-emergence biological efficacy, glasshouse pot test; settings: 312 h, 1,000 g/ha, evaluated after 13 days, 100=total damage, 0=no damage, read-out: Percentage damage caused to weed species, pre-emergence, ALOMY
In short: (§1)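 Damage ratings (0 no damage to 100 total damage) were taken 13 days after treatment. Compound had been applied at 1000 or 250 g/ha as an aqueous spray from acetone/water (50:50) with 0.5% Tween 20, one day after sowing in soil.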

[2] = tested on: Amaranthus retroflexus (AMARE); assay: as above; settings: 312 h, 1,000 g/ha, evaluated after 13 days, 100=total damage, 0=no damage, read-out: Percentage damage caused to weed species, pre-emergence, AMARE
In short: as §1

[3] = tested on: Echinochloa crus-galli (ECHCG); assay: as above; settings: 312 h, 1,000 g/ha, evaluated after 13 days, 100=total damage, 0=no damage, read-out: Percentage damage caused to weed species, pre-emergence, ECHCG
In short: as §1

[4] = tested on: Ipomea hederaceae (IPOHE); assay: as above; settings: Ipomoea hederacea, 312 h, 1,000 g/ha, evaluated after 13 days, 100=total damage, 0=no damage, read-out: Percentage damage caused to weed species, pre-emergence, IPOHE
In short: as §1

Setaria faberi (SETFA) [5] = assay: as above; settings: 312 h, 1,000 g/ha, evaluated after 13 days, 100=total damage, 0=no damage, read-out: Percentage damage caused to weed species, pre-emergence, SETFA
In short: as §1

Solanum nigrum (SOLNI) [6] = assay: as above; settings: 312 h, 1,000 g/ha, evaluated after 13 days, 100=total damage, 0=no damage, read-out: Percentage damage caused to weed species, pre-emergence, SOLNI
In short: as §1

[7] = tested on: Alopecurus myosuroides (ALOMY); assay: Post-emergence biological efficacy, glasshouse pot test; settings: 312 h, 1,000 g/ha, evaluated after 13 days, 100=total damage, 0=no damage, read-out: Percentage damage caused to weed species, post-emergence, ALOMY
In short: (§2)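 Scores on a 0 (undamaged) to 100 (dead) scale reflect injury 13 days post-treatment of 8-day-old potted plants sprayed at 1000 or 250 g/ha.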

[8] = tested on: Amaranthus retroflexus (AMARE); assay: as above; settings: 312 h, 1,000 g/ha, evaluated after 13 days, 100=total damage, 0=no damage, read-out: Percentage damage caused to weed species, post-emergence, AMARE
In short: as §2

[9] = tested on: Echinochloa crus-galli (ECHCG); assay: as above; settings: 312 h, 1,000 g/ha, evaluated after 13 days, 100=total damage, 0=no damage, read-out: Percentage damage caused to weed species, post-emergence, ECHCG
In short: as §2

[10] = tested on: Ipomea hederaceae (IPOHE); assay: as above; settings: Ipomoea hederacea, 312 h, 1,000 g/ha, evaluated after 13 days, 100=total damage, 0=no damage, read-out: Percentage damage caused to weed species, post-emergence, IPOHE
In short: as §2

Setaria faberi (SETFA) [11] = assay: as above; settings: 312 h, 1,000 g/ha, evaluated after 13 days, 100=total damage, 0=no damage, read-out: Percentage damage caused to weed species, post-emergence, SETFA
In short: as §2

Solanum nigrum (SOLNI) [12] = assay: as above; settings: 312 h, 1,000 g/ha, evaluated after 13 days, 100=total damage, 0=no damage, read-out: Percentage damage caused to weed species, post-emergence, SOLNI
In short: as §2

| Structure (SMILES) | pest or weed control at 1000 g/ha [1] | pest or weed control at 1000 g/ha [2] | pest or weed control at 1000 g/ha [3] | pest or weed control at 1000 g/ha [4] | pest or weed control at 1000 g/ha (Setaria faberi (SETFA) [5]) | pest or weed control at 1000 g/ha (Solanum nigrum (SOLNI) [6]) | pest or weed control at 1000 g/ha [7] | pest or weed control at 1000 g/ha [8] | pest or weed control at 1000 g/ha [9] | pest or weed control at 1000 g/ha [10] | pest or weed control at 1000 g/ha (Setaria faberi (SETFA) [11]) | pest or weed control at 1000 g/ha (Solanum nigrum (SOLNI) [12]) |
| --- | --- | --- | --- | --- | --- | --- | --- | --- | --- | --- | --- | --- |
| COC(=O)c1nc(Cl)cc(NCc2cccs2)c1Cl [Compound 75-2, 3,6-Dichloro-4-(thiophen-2-ylmethylamino)-pyridine-2-carboxylic acid methyl ester] | 70% | 100% | 60% | 90% | 80% | 100% | 60% | 100% | 70% | 70% | 80% | 100% |
| C=Cc1c(NCc2cccs2)cc(Cl)nc1C(=O)OC [Compound 75-12, 6-Chloro-3-ethenyl-4-(thiophen-2-ylmethylamino)-pyridine-2-carboxylic acid methyl ester] | 80% | 100% | 60% | 80% | 70% | 100% | 50% | 100% | 70% | 50% | 80% | 100% |
| COC(=O)c1nc(Cl)cc(NCc2cc(C)nn2C)c1Cl [Compound 77-2, 3,6-Dichloro-4-[(1,3-dimethylpyrazol-5-ylmethyl)-amino]-pyridine-2-carboxylic acid methyl ester] | 60% | 100% | 20% | 90% | 70% | 100% | 50% | 100% | 30% | 80% | 80% | 100% |
| COC(=O)c1nc(Cl)cc(NCc2cccnc2)c1Cl [Compound 78-2, 3,6-Dichloro-4-(pyridin-3-ylmethylamino)-pyridine-2-carboxylic acid methyl ester] | 40% | 100% | 20% | 90% | 50% | 100% | 20% | 100% | 20% | 70% | 50% | 100% |
| COC(=O)c1nc(Cl)cc(NCc2ccncc2)c1Cl [Compound 80-2, 3,6-Dichloro-4-(pyridin-4-ylmethylamino)-pyridine-2-carboxylic acid methyl ester] | 70% | 100% | 20% | 90% | 80% | 100% | 40% | 90% | 60% | 70% | 50% | 100% |
| COC(=O)c1nc(Cl)cc(NCc2cnc(C)cn2)c1Cl [Compound 81-2, 3,6-Dichloro-4-[(5-methylpyrazin-2-ylmethyl)-amino]-pyridine-2-carboxylic acid methyl ester] | 70% | 100% | 70% | 90% | 70% | 100% | 40% | 100% | 40% | 60% | 80% | 100% |
